Patent US7968558B2, “Amidine derivatives of 2-heteroaryl-quinazolines and quinolines; potent analgesics and anti-inflammatory agents” (Rottapharm S.p.A., priority 2006, dated 2011)
Like-named read-outs stand apart in the source and are kept apart here.

Columns and labels:
[1] = test system: IL-1β induced PGE2 production; test: PGE2 production induced by IL-1β in chondrocyte cell culture; type: cell-based, rabbit; settings: Oryctolagus cuniculus, Chondrocyte, read-out: Effects on PGE2 production in rabbit Chondrocyte culture, IC50
Source text: Conversely, compounds of the invention are able to inhibit, at micromolar concentration, IL-1β induced PGE2 production in cellular systems. This inhibition effect on the production of the pro-inflammatory mediator PGE2, instead of to be ascribed to a direct COX-2 inhibition, as happens with Celecoxib and other COX-2 inhibitors, is in this case due to inhibition of cytokine induced COX-2 expression as proven in cellular systems.
Effectiveness in inhibition of PGE2 production induced by IL-1β in chondrocyte cell culture, as well as inhibition in IL-1β induced COX-2 expression in SW1353 human chondrosarcoma cell line, is summarized in Table 2, for representative compounds of the invention.

[2] = test system: Zymosan-induced mechanical hyperalgesia; test: Zymosan-induced mechanical hyperalgesia (Randall-Selitto); type: in vivo, rat; settings: oral
Protocol: The interplantar injection of Zymosan-induced mechanical hyperalgesia was used as a model of inflammatory pain (Meller, Neuropharmacology, 1994, 33, 1471-1478). In this model, typically a male Sprague-Dawley or Wistar rat (200-250 g) receives an interplantar injection of 3 mg/100 μl zymosan into one hind paw. A marked inflammation occurs in this hind paw. Drugs are administered orally for evaluation of efficacy, 30 min. before the inflammatory insult. The hyperalgesia induced by zymosan administration was evaluated using the Randall-Selitto method (Arch. Int. Pharmacodyn., 1957, 111, 409). The quantitation of the analgesic effect is achieved by an analgesimeter, which consist in applying to the inflamed paw an increasing weight (from 130-140 g up to 500 g). The difference in the mechanical pain threshold between the basal value (generally 230-250 g) and the one tolerated by the animals treated with the drug, determined 4 hours after the inflammatory challenge, is defined as mechanical hyperalgesia.
Mechanical hyperalgesia is expressed for the compounds of the invention as ED50, which is the dose of the administered compound able to increase the pain threshold by 50% in comparison with the group of control animals. The corresponding ED100, representing the dose able of reducing of 100% the pain threshold, can be calculated for those cases where there is a linear dose-response relationship. In vivo anti-inflammatory effect exerted by the compound of the invention can be assessed in the same Zymosan induced inflammation test described above, by measuring the volume of the oedema induced by the inflammatory agent. The oedema was evaluated as the increase in the volume of the Zymosan injected paw within a time of 0-2 hrs. The measurements of the variation of the oedema volume of the paw were recorded using hydroplethysmometer, which consists of two plastic cuvettes containing a surfactant liquid, the larger one being used for immersion of the paw, connected to the smaller one which contains a trans-ducer capable of recording small displacements of the volume used for the measure. The paw is immersed in the cuvettes up to the tibiotarsal joint. The volume of the liquid displaced is proportional to the extent of the inflammation. The efficacy of the compounds of the invention in preventing oedema formation is expressed as ED30, and is measured 2 hours after the inflammatory challenge, and represents the dose able of reducing of 30%, the Zymosan induced paw volume increase in comparison to control animals (animals treated with Zymosan but treated with only distilled water instead of the testing compound). The corresponding ED50, representing the dose able of reducing of 50% the zymosan induced paw volume increase, can be calculated for those cases where there is a linear dose-response relationship.
In both the experiments, for each test compound, at least three doses were used, with 10 animals per group. Compounds of the invention were tested at 10, 20 and 40 mg/Kg.

[3] = test system: CFA-induced hyperalgesia; test: CFA model of chronic inflammatory pain; type: in vivo, rat
[4] = test system: acetic acid-induced abdominal writhes; test: Acetic acid-induced writhing test; type: in vivo, mice; settings: for MPE (%): 30 min. before acetic acid
Protocol: With the aim of assessing whether the compounds of the invention are able to inhibit responses to peritoneal irritation-induced visceral pain, the acetic acid-induced writhing assay was used in mice to determine the degree of anti-nociception.
The writhing test is a model of inflammatory pain that has long been used as a screening tool for evaluation of analgesic and anti-inflammatory agents (HDJ Collier, B. J. Pharmacol Chemother., 1968, 32, 295-310). The test was performed inducing nociception by an i.p. injection of acetic acid 1%, 0.1 mL/10 g of body weight. Mice were pre-treated (subcutaneously, s.c., three different doses: 3, 10, 30 mg/Kg) with the tested compounds 30 min. before acetic acid injection, while control animals received a similar volume of saline solution. A group of mice was treated with Paracetamol (200 mg/Kg, s.c.) as reference drug. The number of abdominal writhes (full extension of both hind paws) was cumulatively counted every 5 minutes over a period of 20 min. immediately after the acetic acid injection. The anti-nociceptive activity was expressed as inhibition of abdominal writhes as maximum percent effect (MPE), which represents the difference (%) in pain threshold between the animals treated with the drug and the ones that received only the vehicle.

[5] = test system: formalin-induced paw licking; test: Formalin (licking) test; type: in vivo, mice; settings: Mus musculus, ip, 1 hour before formalin
Protocol: The formalin test is increasingly used as a model of injury-produced pain (FV. Abbott, Pain, 1995, 60, 91-102). The procedure used for the evaluation of the compounds of the invention was similar to that reported by literature (S. Hunskaar, Pain, 1987, 30, 103-104), and consisted of the injection of 20 μl of 1% solution of formalin dissolved in distilled water, in the plantar surface of the right hind paw of the mice. Immediately, the animals were placed individually in an observation chamber. The amount of time that the animal spent licking the injected paw, considered indicative of pain, was recorded during 30 min. following formalin injection. The initial nociceptive scores normally peaked 5 min after formalin injection (early phase) and 15-30 min. after formalin injection (late phase), representing both the neurogenic and inflammatory pain responses respectively.
Animals were treated i.p. with an aqueous solution of the tested compound (doses: 3, 10, 30 mg/Kg), 1 hour before the formalin injection. Control animals received only the vehicle.
In Table 8, the analgesic effect elicited in this test by a representative compound of Formula (I), is expressed as ED50 both for the early and late phase, and compared with the performance of the standard reference, paracetamol.

IC50 [1]: 4.1 µM
SMILES: CC(=N)Nc1ccc2nc(-c3ccc4c(c3)OCO4)ncc2c1 [Example 1, N-[2-(1,3-benzodioxol-5-yl)quinazolin-6-yl]acetamidine]
ED50 ([2]; Rattus norvegicus, 30 min before zymosan, 4 hours after challenge, read-out: Analgesia ED50): 6 mg/kg | Analgesia ED100 ([2]; calculated from linear dose-response): 18 mg/kg | MPE 0.5 hrs. ([3]; 3 mg/Kg i.p.): 9% | MPE 0.5 hrs. ([3]; 10 mg/Kg i.p.): 28% | MPE 1.5 hrs. ([3]; 10 mg/Kg i.p.): 47% | MPE 3 hrs. ([3]; 10 mg/Kg i.p.): 15% | MPE 6 hrs. ([3]; 10 mg/Kg i.p.): 30% | MPE 0.5 hrs. ([3]; 30 mg/Kg i.p.): 418% | MPE 1.5 hrs. ([3]; 30 mg/Kg i.p.): 395% | MPE 3 hrs. ([3]; 30 mg/Kg i.p.): 384% | MPE 6 hrs. ([3]; 30 mg/Kg i.p.): 132% | MPE 24 hrs. ([3]; 30 mg/Kg i.p., 24 hrs.): 60% | MPE (%) ([4]; 3 mg/Kg s.c.): 30% | MPE (%) ([4]; 10 mg/Kg s.c.): 33% | MPE (%) ([4]; 30 mg/Kg s.c.): 89% | ED50 ([4]; Mus musculus, sc, writhing test, read-out: ED50): 9.8 mg/kg | ED50 ([5]; early phase, read-out: Analgesic effect ED50 (mg/Kg) Early phase): 19 mg/kg | ED50 ([5]; late phase, read-out: Analgesic effect ED50 (mg/Kg) Late phase): 13 mg/kg
